The values below are quoted from earlier work in patent US20240374689A1 (Longevity Biotech, Inc., priority 2010, published 2024).

For the data set the following is noted: in humans.

With GLP-1, the plasma half-life is 2 min.
